Source: patent US10301299B2, “Glycosidase inhibitors” (Merck Patent GmbH, priority 2013, dated 2019)

Tests used:
Tg(tauP301L)4510 mice [1] = assay: Immunohistochemistry (AT8) and Bielschowsky stain of hippocampus in Tg4510 mice; type: in vivo, mouse; conditions: chronic 4 months
Method: (§1) Animals: Tg(tauP301L)4510 mice were generated as previously described (Santacruz et al., 2005, Science 309: 476-481). Animals were bred and housed at the McLaughlin Research Institute (Great Falls, Mont.). All experiments were approved by the MRI Institutional Animal Care and Use Committee (IACUC).
Immunohistochemistry: To examine changes in tangle pathology, a hemibrain was dissected and immersion fixed in 10% neutral buffered formalin for 24-48 h and subsequently embedded in paraffin blocks. 10 micron serial coronal sections were mounted onto Superfrost Plus slides, and stained using Bond Intense R kit. To detect dystrophic AT8 neurons, mounted slides were pretreated with antigen retrieval solutions for 10 min followed by washes with BOND wash buffer. Sections were subsequently quenched with hydrogen peroxide in Bond Intense R kit, blocked with M.O.M. blocking buffer (M.O.M Immunodetection Kits, Vector Laboratories), and then incubated with pS202/205 primary antibody (1:500; ThermoScientific). Sections were then incubated sequentially with biotinylated donkey anti-mouse secondary antibody (1:200; Jackson Immunoresearch), Streptavidin-HRP, and 3,3′-diaminobenzidine (both BOND Intense R kit). To detect agyrophilic tangles, sections were deparafinized, rehydrated in distilled water and treated with formaldehyde (4%) overnight at 37° C. Sections were washed in tap water, incubated in a 20% silver nitrate solution for 15 min in the dark, washed, incubated with ammoniated silver solution for 10 min in the dark, washed in ammonia water, and treated with developer. Sections were subsequently washed in ammonia water, distilled water, thiosulfate sodium, dehydrated and mounted.

Tg(tauP301L)4510 mice [2] = assay: Western blot of O-GlcNAcylation and tau phosphorylation in brain of Tg4510 mice; type: in vivo, mouse
Method: as §1
Tau immunoprecipitation: To immunoprecipitate tau protein from brain lysates a Crosslink Immunoprecipitation kit (Pierce 26147) was used. The A/G resin was crosslinked to 10 μg of the HT7 tau antibody (Thermo Scientific MN1000) or control mouse IgG (Santa Cruz Biotech sc-2025) via the manufacturer's protocol. 250 μg of brain lysates prepared as described below was incubated with the resin-coupled tau antibody overnight at 4-C. Samples were eluted with 50 μl of low pH Elution buffer and immediately centrifuged into collection tubes containing 5 μl of 1M Tris, pH 9.5. Immunoprecipitated tau was subjected to Western blotting as described below.
Western Blot: To examine changes in O-GlcNAcylation and phosphorylation, animals were euthanized 4 h after injection in the acute or subchronic studies and 24 h after the last injection in the chronic study. Hemi-forebrains were rapidly dissected and frozen on dry ice. Tissue samples were homogenized in Phosphosafe Buffer (EMD Chemicals), followed by a low-speed centrifugation (15,000 g) to remove cellular debris. The resulting supernatant (low-speed supernatant, Lss) was assayed to determine protein concentrations by Lowry method. O-GlcNAcylation and phosphorylation were determined in 20 μg protein samples subjected to 4-15% SDS-PAGE (Tris-HCl gels, Bio-Rad), followed by a transfer to nitrocellulose membranes (Invitrogen, IBlot system). Membranes were blocked in Licor blocking buffer at room temperature for 1 h and incubated in primary antibody overnight at 4° C. Total protein O-GlcNAcylation was detected using the RL2 antibody (1:500, ThermoScientific), tau O-GlcNAcylation was detected using the Otau(S400) antibody (1:500) and tau phosphorylation was detected using AT8 (1:500, ThermoScientific), pS396, pS262, pS356 (1:500, Abcam) and pS400 (1:5000, GenScript). GAPDH (1:1000, Abcam) or total tau (1:50,000 ThermoScientific) antibodies served as internal loading controls. Membranes were incubated with species-specific fluorophore-conjugated secondary (1:10,000; Licor) antibodies for 1 h at room temperature and detected using the Licor Odyssey. […]

Q: How did the “pS202/205 (AT8) positive dystrophic neurons” value (Tg(tauP301L)4510 mice [1]; CA1 region of the hippocampus) turn out when `CCN=C1N[C@@H]2[C@@H](O)[C@H](O)[C@@H](CO)O[C@@H]2S1` [ThiametG] was run?
A: significantly reduced

Q: And the “tangle pathology (Bielschowsky staining)” value (Tg(tauP301L)4510 mice [1]; CA1 region of the hippocampus)?
A: significant reduction

Q: What about the “pS202/205 (AT8) positive dystrophic neurons” value (Tg(tauP301L)4510 mice [1]; CA3 region of the hippocampus) of the same molecule?
A: significantly reduced

Q: What about the “tangle burden (Bielschowsky staining)” value (Tg(tauP301L)4510 mice [1]; CA3 region of the hippocampus) of the same molecule?
A: no difference

Q: And the “tau O-GlcNAcylation elevated (Otau(S400))” value (Tg(tauP301L)4510 mice [2]; 4 months of dosing)?
A: 9 fold

Q: What about the “levels of total protein O-GlcNAcylation” value (Tg(tauP301L)4510 mice [2]; 4 months, 500 mg/kg/day) of the same molecule?
A: 185%

Q: What about the “tau phosphorylation at S202/205” value (Tg(tauP301L)4510 mice [2]; 14 days) of the same molecule?
A: returned towards basal levels

Q: And the “tau phosphorylation at S262” value (Tg(tauP301L)4510 mice [2]; 14 days)?
A: returned towards basal levels

Q: What about the “tau phosphorylation at S356” value (Tg(tauP301L)4510 mice [2]; 14 days) of the same molecule?
A: still significantly reduced

Q: What about the “tau phosphorylation at S396” value (Tg(tauP301L)4510 mice [2]; 14 days) of the same molecule?
A: returned towards basal levels

Q: What about the “total protein O-GlcNAcylation in the CNS” value (Tg(tauP301L)4510 mice [2]; 14 days of administration, 500 mg/kg/day, vs vehicle) of the same molecule?
A: significant increase

Q: And the “tau phosphorylation at S400” value (Tg(tauP301L)4510 mice [2]; acute treatment)?
A: did not alter

Q: And the “increase in tau O-GlcNAcylation (Otau(S400))” value (Tg(tauP301L)4510 mice [2]; repeated injection (14 days), vs vehicle)?
A: 9 fold

Q: And the “tau O-GlcNAcylation (Otau(S400))” value (Tg(tauP301L)4510 mice [2]; single injection)?
A: small increase

Q: What about the “tau phosphorylation at S202/205” value (Tg(tauP301L)4510 mice [2]; single injection) of the same molecule?
A: reduced

Q: And the “tau phosphorylation at S262” value (Tg(tauP301L)4510 mice [2]; single injection)?
A: reduced

Q: And the “tau phosphorylation at S356” value (Tg(tauP301L)4510 mice [2]; single injection)?
A: reduced

Q: And the “tau phosphorylation at S396” value (Tg(tauP301L)4510 mice [2]; single injection)?
A: reduced

Q: What about the “total protein O-GlcNAcylation in the CNS” value (Tg(tauP301L)4510 mice [2]; single injection, 500 mg/kg/day, 4 h, vs vehicle) of the same molecule?
A: significant increase
